From ChEMBL document CHEMBL1201862, “PubChem BioAssay data set” (2004)
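1) Cells in 96-well plates. 2) Compound, 48 h, 5 concentrations. 3) Linear interpolation between surrounding doses. 4) Unreached endpoint = highest concentration. GI50 is the concentration that inhibits growth by half.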 The source made the active and inactive calls. Cut-off read from the data, not from the text of the source: active = GI50 up to about 1.1 µM and inactive = higher.

Assays:
Assay in all cases: NCI tumour cell line growth inhibition, 48 h
786-0 = test system: 786-0
BT-549 = test system: BT-549
HCC 2998 = test system: HCC 2998
HL-60 = test system: HL-60
HT-29 = test system: HT-29
K562 = test system: K562
KM12 = test system: KM12
LOX IMVI = test system: LOX IMVI
M14 = test system: M14
MDA-MB-435 = test system: MDA-MB-435
NCI-H23 = test system: NCI-H23
PC-3 = test system: PC-3
RPMI-8226 = test system: RPMI-8226
SK-MEL-28 = test system: SK-MEL-28
SK-OV-3 = test system: SK-OV-3
SNB-75 = test system: SNB-75
SR = test system: SR
SW-620 = test system: SW-620
TK-10 = test system: TK-10
UACC-257 = test system: UACC-257

Measured: GI50

Cc1ccc(Nc2ncnc3sc(SCc4ccccc4)nc23)cc1
inactive: 786-0 > 100 µM | BT-549 > 100 µM | HCC 2998 33.7 µM | HL-60 > 100 µM | HT-29 36.1 µM | K562 > 100 µM | KM12 > 100 µM | LOX IMVI > 100 µM | M14 > 100 µM | MDA-MB-435 > 100 µM | NCI-H23 > 100 µM | PC-3 90.6 µM | RPMI-8226 48 µM | SK-MEL-28 > 100 µM | SK-OV-3 > 100 µM | SNB-75 > 100 µM | SR > 100 µM | SW-620 > 100 µM | TK-10 52.4 µM | UACC-257 > 100 µM

Cc1ccccc1OC(C)C(=O)NN1C(=O)CSC1c1ccc(Cl)cc1 (stereo not given)
inactive: 786-0 18.2 µM | BT-549 44.8 µM | HCC 2998 34.9 µM | HL-60 21.1 µM | HT-29 18.4 µM | K562 23.6 µM | KM12 42.2 µM | LOX IMVI 24.4 µM | M14 41.5 µM | MDA-MB-435 57.9 µM | NCI-H23 56.1 µM | PC-3 35.7 µM | RPMI-8226 26.5 µM | SK-MEL-28 73.3 µM | SK-OV-3 47.1 µM | SNB-75 35.7 µM | SR 5.47 µM | SW-620 32.1 µM | TK-10 47.4 µM | UACC-257 55 µM

CC1(C)OC2C(O)CN3CCS[C@H]3C2O1 (stereo not given in full)
inactive: 786-0 > 100 µM | BT-549 > 100 µM | HCC 2998 > 100 µM | HL-60 > 100 µM | HT-29 > 100 µM | K562 > 100 µM | KM12 > 100 µM | LOX IMVI > 100 µM | M14 > 100 µM | MDA-MB-435 > 100 µM | NCI-H23 > 100 µM | PC-3 > 100 µM | RPMI-8226 > 100 µM | SK-MEL-28 > 100 µM | SK-OV-3 > 100 µM | SNB-75 > 100 µM | SR > 100 µM | SW-620 > 100 µM | TK-10 > 100 µM | UACC-257 > 100 µM

CC1=NN2C(=N)/C(=C/c3ccco3)C(=O)N=C2S1
inactive: 786-0 > 100 µM | BT-549 > 100 µM | HCC 2998 > 100 µM | HL-60 > 100 µM | HT-29 > 100 µM | K562 > 100 µM | KM12 > 100 µM | LOX IMVI > 100 µM | M14 > 100 µM | MDA-MB-435 > 100 µM | NCI-H23 > 100 µM | PC-3 > 100 µM | RPMI-8226 > 100 µM | SK-MEL-28 > 100 µM | SK-OV-3 > 100 µM | SNB-75 > 100 µM | SR 50.4 µM | SW-620 > 100 µM | TK-10 > 100 µM | UACC-257 > 100 µM
